The values below come from ChEMBL document CHEMBL3991601, “The target landscape of clinical kinase drugs” (Science, 2017).

Structures are written as SMILES. Calls of active or inactive are those of the source. Cut-off read from the data, not from the text of the source, for most assays here: actives have a measured Kd and inactives only a lower limit.

Test [1] deals with T1, Serine/threonine-protein kinase TBK1 (Homo sapiens, UniProt Q9UHD2).
T1 sequence (Q9UHD2 whole entry): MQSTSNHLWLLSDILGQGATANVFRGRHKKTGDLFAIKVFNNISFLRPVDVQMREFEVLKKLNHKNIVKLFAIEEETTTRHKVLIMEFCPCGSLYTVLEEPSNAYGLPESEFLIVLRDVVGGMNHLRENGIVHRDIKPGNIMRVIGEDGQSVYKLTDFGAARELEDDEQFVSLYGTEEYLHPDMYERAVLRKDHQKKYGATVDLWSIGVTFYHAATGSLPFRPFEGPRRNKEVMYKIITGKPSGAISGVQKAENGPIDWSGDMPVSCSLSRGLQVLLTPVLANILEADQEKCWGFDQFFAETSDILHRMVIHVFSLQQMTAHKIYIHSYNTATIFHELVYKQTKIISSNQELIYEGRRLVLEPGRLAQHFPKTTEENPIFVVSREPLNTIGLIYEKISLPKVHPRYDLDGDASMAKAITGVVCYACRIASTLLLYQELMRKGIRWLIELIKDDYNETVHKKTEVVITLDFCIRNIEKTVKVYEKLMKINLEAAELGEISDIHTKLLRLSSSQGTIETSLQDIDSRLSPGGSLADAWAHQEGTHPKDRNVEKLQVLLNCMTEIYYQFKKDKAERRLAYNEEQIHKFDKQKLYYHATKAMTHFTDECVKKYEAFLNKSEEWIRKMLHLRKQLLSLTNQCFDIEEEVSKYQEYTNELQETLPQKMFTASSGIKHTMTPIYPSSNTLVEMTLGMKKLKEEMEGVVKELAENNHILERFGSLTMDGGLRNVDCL

For test [2], the target named is T2, Serine/threonine-protein kinase A-Raf (Homo sapiens, UniProt P10398).
T2 sequence (P10398 whole entry): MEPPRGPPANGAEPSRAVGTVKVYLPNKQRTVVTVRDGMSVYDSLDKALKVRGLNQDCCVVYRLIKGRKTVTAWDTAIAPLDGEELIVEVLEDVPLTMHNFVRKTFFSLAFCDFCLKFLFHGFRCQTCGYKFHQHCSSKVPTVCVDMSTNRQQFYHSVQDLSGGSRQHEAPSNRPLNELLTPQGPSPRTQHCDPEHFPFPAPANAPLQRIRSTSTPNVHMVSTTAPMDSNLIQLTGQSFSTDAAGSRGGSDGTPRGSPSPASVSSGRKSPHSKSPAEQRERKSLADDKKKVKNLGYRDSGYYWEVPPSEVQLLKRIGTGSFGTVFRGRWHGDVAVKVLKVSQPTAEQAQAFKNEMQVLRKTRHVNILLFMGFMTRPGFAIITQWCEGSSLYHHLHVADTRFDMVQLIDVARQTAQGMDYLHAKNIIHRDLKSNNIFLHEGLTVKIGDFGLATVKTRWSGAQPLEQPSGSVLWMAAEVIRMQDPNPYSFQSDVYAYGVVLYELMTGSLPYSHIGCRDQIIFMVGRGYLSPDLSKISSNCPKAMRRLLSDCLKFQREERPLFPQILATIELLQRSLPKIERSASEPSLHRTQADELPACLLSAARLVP

The next test concerns the target Ephrin type-A receptor 4 (Homo sapiens, UniProt P54764).
Test [3] addresses T3, Serine/threonine-protein kinase ICK (Homo sapiens, UniProt Q9UPZ9).
T3 sequence (Q9UPZ9 whole entry): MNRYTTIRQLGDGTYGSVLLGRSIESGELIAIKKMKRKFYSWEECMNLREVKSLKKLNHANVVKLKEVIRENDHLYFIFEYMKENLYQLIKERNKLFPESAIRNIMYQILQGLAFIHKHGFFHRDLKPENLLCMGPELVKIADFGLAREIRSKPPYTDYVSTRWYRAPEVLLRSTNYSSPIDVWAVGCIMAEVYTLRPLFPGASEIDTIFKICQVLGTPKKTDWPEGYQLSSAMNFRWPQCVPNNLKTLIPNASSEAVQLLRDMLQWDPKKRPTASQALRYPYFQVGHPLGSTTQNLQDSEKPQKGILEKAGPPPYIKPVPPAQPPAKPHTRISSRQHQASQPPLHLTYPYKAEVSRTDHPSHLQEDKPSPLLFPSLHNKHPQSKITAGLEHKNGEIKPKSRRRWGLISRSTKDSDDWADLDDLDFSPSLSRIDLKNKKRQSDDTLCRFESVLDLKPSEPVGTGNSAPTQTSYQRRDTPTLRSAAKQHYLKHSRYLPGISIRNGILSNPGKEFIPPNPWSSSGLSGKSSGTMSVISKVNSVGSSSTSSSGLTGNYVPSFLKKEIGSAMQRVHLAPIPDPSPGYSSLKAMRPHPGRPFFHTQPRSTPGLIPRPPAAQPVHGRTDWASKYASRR

In test [4] the target is TRAF2 and NCK-interacting protein kinase (Homo sapiens, UniProt Q9UKE5).
TRAF2 and NCK-interacting protein kinase, sequence (Q9UKE5 whole entry): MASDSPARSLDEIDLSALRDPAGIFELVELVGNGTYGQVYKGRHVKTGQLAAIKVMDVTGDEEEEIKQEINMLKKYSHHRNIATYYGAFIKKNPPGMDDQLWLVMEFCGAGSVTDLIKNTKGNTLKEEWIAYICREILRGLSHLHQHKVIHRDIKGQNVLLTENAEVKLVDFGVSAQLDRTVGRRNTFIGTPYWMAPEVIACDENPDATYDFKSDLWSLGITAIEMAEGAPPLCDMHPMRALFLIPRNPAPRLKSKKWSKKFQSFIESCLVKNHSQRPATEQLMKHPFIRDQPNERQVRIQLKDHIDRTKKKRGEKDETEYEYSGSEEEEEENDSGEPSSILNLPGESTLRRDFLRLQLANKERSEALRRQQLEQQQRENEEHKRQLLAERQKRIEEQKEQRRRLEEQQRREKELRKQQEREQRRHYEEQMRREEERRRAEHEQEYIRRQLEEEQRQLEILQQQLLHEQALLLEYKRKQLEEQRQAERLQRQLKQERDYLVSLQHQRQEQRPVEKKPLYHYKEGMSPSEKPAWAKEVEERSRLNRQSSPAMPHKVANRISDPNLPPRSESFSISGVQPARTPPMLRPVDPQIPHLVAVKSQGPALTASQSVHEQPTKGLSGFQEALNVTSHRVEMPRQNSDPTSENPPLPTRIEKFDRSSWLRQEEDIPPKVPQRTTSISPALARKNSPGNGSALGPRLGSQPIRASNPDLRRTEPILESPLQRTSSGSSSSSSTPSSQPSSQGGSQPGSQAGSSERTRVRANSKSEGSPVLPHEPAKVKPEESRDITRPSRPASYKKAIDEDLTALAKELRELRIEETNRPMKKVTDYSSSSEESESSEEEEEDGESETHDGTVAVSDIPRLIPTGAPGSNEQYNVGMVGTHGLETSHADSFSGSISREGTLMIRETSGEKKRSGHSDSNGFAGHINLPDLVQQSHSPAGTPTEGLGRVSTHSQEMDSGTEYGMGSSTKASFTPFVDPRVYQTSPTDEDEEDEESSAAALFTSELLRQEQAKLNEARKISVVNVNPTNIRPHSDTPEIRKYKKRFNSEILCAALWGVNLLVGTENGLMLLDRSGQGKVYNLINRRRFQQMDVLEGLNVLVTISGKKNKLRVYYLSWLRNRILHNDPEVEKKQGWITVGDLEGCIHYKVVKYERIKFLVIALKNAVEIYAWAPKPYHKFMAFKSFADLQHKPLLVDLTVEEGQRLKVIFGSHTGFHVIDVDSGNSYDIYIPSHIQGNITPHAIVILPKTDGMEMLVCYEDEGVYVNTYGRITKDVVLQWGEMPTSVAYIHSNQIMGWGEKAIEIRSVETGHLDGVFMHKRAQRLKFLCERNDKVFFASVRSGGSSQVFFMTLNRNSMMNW
Test [5] concerns the target Mitogen-activated protein kinase kinase kinase kinase 5 (Homo sapiens, UniProt Q9Y4K4).
Test [6] deals with Adenylate kinase 2, mitochondrial (Homo sapiens, UniProt P54819).
Note: in the data inactive means no Kd found up to 30 µM.

Mitogen-activated protein kinase kinase kinase kinase 5, sequence (Q9Y4K4 whole entry): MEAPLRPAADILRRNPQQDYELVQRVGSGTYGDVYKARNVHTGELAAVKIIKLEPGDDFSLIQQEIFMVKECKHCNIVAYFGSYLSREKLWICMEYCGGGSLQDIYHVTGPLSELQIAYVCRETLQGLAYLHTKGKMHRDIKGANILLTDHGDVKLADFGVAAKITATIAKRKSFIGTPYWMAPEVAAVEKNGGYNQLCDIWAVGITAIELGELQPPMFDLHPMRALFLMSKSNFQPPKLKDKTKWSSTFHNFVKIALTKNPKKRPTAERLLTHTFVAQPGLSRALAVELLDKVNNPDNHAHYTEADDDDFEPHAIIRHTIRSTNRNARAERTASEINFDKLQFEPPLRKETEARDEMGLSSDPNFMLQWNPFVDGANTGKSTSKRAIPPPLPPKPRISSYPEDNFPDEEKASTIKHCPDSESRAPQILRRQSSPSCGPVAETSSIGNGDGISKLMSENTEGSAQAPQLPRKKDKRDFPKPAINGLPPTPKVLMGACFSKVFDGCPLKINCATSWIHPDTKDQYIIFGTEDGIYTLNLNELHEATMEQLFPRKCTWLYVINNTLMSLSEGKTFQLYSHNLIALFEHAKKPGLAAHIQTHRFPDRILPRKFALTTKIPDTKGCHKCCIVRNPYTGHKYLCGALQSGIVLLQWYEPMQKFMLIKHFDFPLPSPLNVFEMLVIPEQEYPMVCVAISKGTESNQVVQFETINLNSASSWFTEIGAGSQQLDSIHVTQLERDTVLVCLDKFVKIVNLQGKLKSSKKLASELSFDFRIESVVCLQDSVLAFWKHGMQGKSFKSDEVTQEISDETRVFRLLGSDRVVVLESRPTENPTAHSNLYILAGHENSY
Ephrin type-A receptor 4, sequence (P54764 whole entry): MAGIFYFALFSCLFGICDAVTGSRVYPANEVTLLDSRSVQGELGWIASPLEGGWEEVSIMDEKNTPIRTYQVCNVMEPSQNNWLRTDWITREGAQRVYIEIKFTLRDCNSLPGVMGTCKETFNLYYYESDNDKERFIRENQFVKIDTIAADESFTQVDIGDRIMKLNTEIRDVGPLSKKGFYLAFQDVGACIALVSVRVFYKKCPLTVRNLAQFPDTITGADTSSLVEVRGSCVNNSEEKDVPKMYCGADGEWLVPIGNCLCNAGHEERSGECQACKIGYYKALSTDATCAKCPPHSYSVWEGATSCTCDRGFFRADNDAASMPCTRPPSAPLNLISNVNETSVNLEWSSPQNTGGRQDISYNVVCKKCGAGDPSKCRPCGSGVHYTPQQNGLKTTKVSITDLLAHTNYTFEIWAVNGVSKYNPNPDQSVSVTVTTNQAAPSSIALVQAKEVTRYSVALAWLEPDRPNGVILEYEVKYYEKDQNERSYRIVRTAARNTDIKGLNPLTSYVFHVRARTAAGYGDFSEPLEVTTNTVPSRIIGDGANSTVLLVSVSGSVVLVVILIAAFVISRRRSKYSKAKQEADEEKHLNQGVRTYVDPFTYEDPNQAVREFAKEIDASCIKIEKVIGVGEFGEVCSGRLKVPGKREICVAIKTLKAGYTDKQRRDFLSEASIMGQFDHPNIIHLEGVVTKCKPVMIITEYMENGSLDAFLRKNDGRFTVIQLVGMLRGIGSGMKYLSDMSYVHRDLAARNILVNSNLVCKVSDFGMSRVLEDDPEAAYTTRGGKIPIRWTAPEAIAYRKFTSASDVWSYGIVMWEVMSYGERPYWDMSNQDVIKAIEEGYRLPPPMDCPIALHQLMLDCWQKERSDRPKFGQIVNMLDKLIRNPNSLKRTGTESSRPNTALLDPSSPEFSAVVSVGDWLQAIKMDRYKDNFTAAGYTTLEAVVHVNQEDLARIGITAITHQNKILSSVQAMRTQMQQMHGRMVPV

`O[C@H]1CC[C@H](Nc2ncc3nc(Nc4c(F)cc(F)cc4F)n([C@H]4CCOC4)c3n2)CC1` [TANZISERTIB]: the Kd (in test [1]; in test [2]; on Ephrin type-A receptor 4; in test [3]; in test [4]; in test [5]) was > 30 µM (inactive) each time. Also, the Kd in test [6] was > 30 µM (inactive).

`CC[C@@](C)(Nc1ccnc(-c2c[nH]c3ncccc23)n1)C(=O)NCC(F)(F)F` [DECERNOTINIB]: the Kd (in test [1]; in test [2]; on Ephrin type-A receptor 4; in test [3]; in test [4]; in test [5]) was > 30 µM (inactive) each time. For the same compound, the Kd in test [6] is > 30 µM (inactive).

Consider `CCN1CCN(Cc2ccc(Nc3ncc(F)c(-c4cc(F)c5nc(C)n(C(C)C)c5c4)n3)nc2)CC1` [ABEMACICLIB], for which the Kd in test [1] is > 30 µM (inactive); in test [2], > 30 µM (inactive); at Ephrin type-A receptor 4, > 30 µM (inactive); in test [3] it was 0.053 µM (active); in test [4], > 30 µM (inactive); in test [5] it was > 30 µM (inactive). In test [6], the Kd was > 30 µM (inactive).

`C=CCN(/C=C1/C(=O)O[C@H](COC)[C@@]2(C)C1=C(O)C(=O)C1=C2[C@H](OC(C)=O)C[C@]2(C)C(=O)CC[C@@H]12)CC=C` [SONOLISIB]: the Kd (in test [1]; in test [2]; at Ephrin type-A receptor 4; in test [3]; in test [4]; in test [5]) was > 30 µM (inactive) each time.

As for `Cn1c(=O)c(F)c(Nc2ccc(I)cc2F)c2c(=O)n(C[C@@H](O)CO)cnc21` [TAK-733], the Kd (in test [1]; in test [2]; at Ephrin type-A receptor 4; in test [3]; in test [4]; in test [5]) was > 30 µM (inactive) in each case. Besides, the Kd in test [6] is > 30 µM (inactive).

Take `Cc1cc(C(=O)Nc2cc(Oc3ccc4nc(NC(=O)C5CC5)cn4n3)ccc2C)n(C)n1` [TAK-593]: the Kd (in test [1]; in test [2]; on Ephrin type-A receptor 4; in test [3]; in test [4]; in test [5]) was > 30 µM (inactive) throughout. Further, in test [6], the Kd is > 30 µM (inactive).

`C=CC(=O)Nc1cccc(Nc2nc(Nc3ccc(N4CCN(C(C)=O)CC4)cc3OC)ncc2C(F)(F)F)c1` [ROCILETINIB]: the Kd (in test [1]; in test [2]; on Ephrin type-A receptor 4; in test [3]; in test [4]; in test [5]) was > 30 µM (inactive) each time. Further, the Kd in test [6] was > 30 µM (inactive).

As to `Cc1cc(-c2cc(OC(=O)c3ccccc3)ccc2Cl)cc2nnc(Nc3ccc(OCCN4CCCC4)cc3)nc12` [TG100-801], the Kd in test [1] was > 30 µM (inactive); in test [2], > 30 µM (inactive); at Ephrin type-A receptor 4, 1.93 µM; in test [3], > 30 µM (inactive); in test [4] it was > 30 µM (inactive); in test [5], > 30 µM (inactive). In addition, the Kd in test [6] is > 30 µM (inactive).

In the case of `CNC(=O)c1cc(COc2nnc(Nc3ccc(Cl)cc3)c3ccoc23)ccn1` [TELATINIB], the Kd (in test [1]; in test [2]; at Ephrin type-A receptor 4; in test [3]; in test [5]; in test [6]) was > 30 µM (inactive) in each case.
